Measured values reported in PubChem BioAssay AID1963841 (Molecular Pharmacology Branch, DTP, NCI, 2024).

System: 439559-082-T-J2-PDC spheroid viability
Experiment: Anticancer human tumor 439559-082-T-J2-PDC patient-derived colon adenocarcinoma cell line growth inhibition [POLQ]
Conditions: spheroids with HUVEC and MSC; for IC50: curve of first compound; for viability, T/C: stronger effect = lower value
Outline: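 Growth inhibition in 3D: complex spheroids (tumor PDC, HUVEC, MSC) treated with POLQ inhibitor combinations; where Cmax unknown, highest tested concentration 10 microM, except SN-38 at 1 microM.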

[1] = second compound 0.0316 µM, first compound 0.0316 µM
[2] = second compound 0.0316 µM, first compound 0.1 µM
[3] = second compound 0.0316 µM, first compound 0.316 µM
[4] = second compound 0.0316 µM, first compound 1 µM
[5] = second compound 0.0316 µM, first compound 3.16 µM
[6] = second compound 0.0316 µM, first compound 10 µM
[7] = second compound 0.1 µM, first compound 0.0316 µM
[8] = second compound 0.1 µM, first compound 0.1 µM
[9] = second compound 0.1 µM, first compound 0.316 µM
[10] = second compound 0.1 µM, first compound 1 µM
[11] = second compound 0.1 µM, first compound 3.16 µM
[12] = second compound 0.1 µM, first compound 10 µM
[13] = second compound 0.316 µM, first compound 0.0316 µM
[14] = second compound 0.316 µM, first compound 0.1 µM
[15] = second compound 0.316 µM, first compound 0.316 µM
[16] = second compound 0.316 µM, first compound 1 µM
[17] = second compound 0.316 µM, first compound 3.16 µM
[18] = second compound 0.316 µM, first compound 10 µM
[19] = second compound 1 µM, first compound 0.0316 µM
[20] = second compound 1 µM, first compound 0.1 µM
[21] = second compound 1 µM, first compound 0.316 µM
[22] = second compound 1 µM, first compound 1 µM
[23] = second compound 1 µM, first compound 3.16 µM
[24] = second compound 1 µM, first compound 10 µM
[25] = second compound 3.16 µM, first compound 0.0316 µM
[26] = second compound 3.16 µM, first compound 0.1 µM
[27] = second compound 3.16 µM, first compound 0.316 µM
[28] = second compound 3.16 µM, first compound 1 µM
[29] = second compound 3.16 µM, first compound 3.16 µM
[30] = second compound 3.16 µM, first compound 10 µM
[31] = second compound 10 µM, first compound 0.0316 µM
[32] = second compound 10 µM, first compound 0.1 µM
[33] = second compound 10 µM, first compound 0.316 µM
[34] = second compound 10 µM, first compound 1 µM
[35] = second compound 10 µM, first compound 3.16 µM
[36] = second compound 10 µM, first compound 10 µM
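Further: spheroids exposed to compounds for seven days before readout.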
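Wherever viability, T/C is given: 100% = DMSO vehicle control viability.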

O=C(c1cc(Cc2n[nH]c(=O)c3ccccc23)ccc1F)N1CCN(C(=O)C2CC2)CC1 + Nc1ccc(C#CCN(C(=O)Cc2ncc(C(F)(F)F)cc2C(F)(F)F)c2ccc(F)cc2)nn1
IC50 (second compound 0.0316 µM): > 10 µM
IC50 (second compound 0.1 µM): > 10 µM
IC50 (second compound 0.316 µM): > 10 µM
IC50 (second compound 1 µM): > 10 µM
IC50 (second compound 3.16 µM): > 10 µM
IC50 (second compound 10 µM): > 10 µM
viability, T/C [1]: 93.4%
viability, T/C [2]: 97.3%
viability, T/C [3]: 93.4%
viability, T/C [4]: 101%
viability, T/C [5]: 94.3%
viability, T/C [6]: 98%
viability, T/C [7]: 93.1%
viability, T/C [8]: 106%
viability, T/C [9]: 89.1%
viability, T/C [10]: 117%
viability, T/C [11]: 92.8%
viability, T/C [12]: 99.8%
viability, T/C [13]: 91.5%
viability, T/C [14]: 105%
viability, T/C [15]: 86.8%
viability, T/C [16]: 96.1%
viability, T/C [17]: 106%
viability, T/C [18]: 96.9%
viability, T/C [19]: 104%
viability, T/C [20]: 107%
viability, T/C [21]: 94.1%
viability, T/C [22]: 108%
viability, T/C [23]: 84.7%
viability, T/C [24]: 104%
viability, T/C [25]: 88%
viability, T/C [26]: 116%
viability, T/C [27]: 98.3%
viability, T/C [28]: 106%
viability, T/C [29]: 103%
viability, T/C [30]: 98.3%
viability, T/C [31]: 92.8%
viability, T/C [32]: 87.9%
viability, T/C [33]: 95.5%
viability, T/C [34]: 90.7%
viability, T/C [35]: 98.2%
viability, T/C [36]: 103%

CCc1c2c(nc3ccc(O)cc13)-c1cc3c(c(=O)n1C2)COC(=O)[C@]3(O)CC + COC1C(OC(N)=O)C(O)C(Oc2ccc3c(O)c(NC(=O)c4ccc(O)c(CC=C(C)C)c4)c(=O)oc3c2C)OC1(C)C
IC50 (second compound 0.0316 µM): 0.487 µM
IC50 (second compound 0.1 µM): 0.401 µM
IC50 (second compound 0.316 µM): 0.458 µM
IC50 (second compound 1 µM): 0.377 µM
IC50 (second compound 3.16 µM): 0.332 µM
IC50 (second compound 10 µM): 0.287 µM
viability, T/C (second compound 0.0316 µM, first compound 0.00316 µM): 90.4%
viability, T/C (second compound 0.0316 µM, first compound 0.01 µM): 83.8%
viability, T/C [1]: 69.8%
viability, T/C [2]: 69.3%
viability, T/C [3]: 58.9%
viability, T/C [4]: 39%
viability, T/C (second compound 0.1 µM, first compound 0.00316 µM): 97.3%
viability, T/C (second compound 0.1 µM, first compound 0.01 µM): 84.3%
viability, T/C [7]: 70.7%
viability, T/C [8]: 66.7%
viability, T/C [9]: 57.7%
viability, T/C [10]: 36.6%
viability, T/C (second compound 0.316 µM, first compound 0.00316 µM): 98.5%
viability, T/C (second compound 0.316 µM, first compound 0.01 µM): 92.2%
viability, T/C [13]: 73.1%
viability, T/C [14]: 67.9%
viability, T/C [15]: 58.6%
viability, T/C [16]: 38.5%
viability, T/C (second compound 1 µM, first compound 0.00316 µM): 95.8%
viability, T/C (second compound 1 µM, first compound 0.01 µM): 83.7%
viability, T/C [19]: 65.4%
viability, T/C [20]: 63%
viability, T/C [21]: 59.6%
viability, T/C [22]: 36.8%
viability, T/C (second compound 3.16 µM, first compound 0.00316 µM): 90.5%
viability, T/C (second compound 3.16 µM, first compound 0.01 µM): 81.3%
viability, T/C [25]: 71.8%
viability, T/C [26]: 62%
viability, T/C [27]: 52.7%
viability, T/C [28]: 36.8%
viability, T/C (second compound 10 µM, first compound 0.00316 µM): 80.8%
viability, T/C (second compound 10 µM, first compound 0.01 µM): 82%
viability, T/C [31]: 64.6%
viability, T/C [32]: 61.5%
viability, T/C [33]: 53.1%
viability, T/C [34]: 28.3%

COc1ccc([C@@H](O)c2cc(-c3ncnc4cc(N5CCOCC5)ccc34)c(F)cc2Cl)nn1 + Cc1cccc(N(C)C(=O)C2C(O)CCN2c2nc(C)cc(C(F)(F)F)c2C#N)c1
IC50 (second compound 0.0316 µM): > 10 µM
IC50 (second compound 0.1 µM): > 10 µM
IC50 (second compound 0.316 µM): > 10 µM
IC50 (second compound 1 µM): > 10 µM
IC50 (second compound 3.16 µM): > 10 µM
IC50 (second compound 10 µM): > 10 µM
viability, T/C [1]: 95.2%
viability, T/C [2]: 95.5%
viability, T/C [3]: 95.9%
viability, T/C [4]: 94.9%
viability, T/C [5]: 93.4%
viability, T/C [6]: 81.5%
viability, T/C [7]: 101%
viability, T/C [8]: 99.3%
viability, T/C [9]: 94.7%
viability, T/C [10]: 92.9%
viability, T/C [11]: 92%
viability, T/C [12]: 80.1%
viability, T/C [13]: 105%
viability, T/C [14]: 111%
viability, T/C [15]: 92.1%
viability, T/C [16]: 99.3%
viability, T/C [17]: 87.4%
viability, T/C [18]: 80.9%
viability, T/C [19]: 108%
viability, T/C [20]: 101%
viability, T/C [21]: 91.6%
viability, T/C [22]: 93.4%
viability, T/C [23]: 85.5%
viability, T/C [24]: 83%
viability, T/C [25]: 95.1%
viability, T/C [26]: 92.3%
viability, T/C [27]: 97.4%
viability, T/C [28]: 95.6%
viability, T/C [29]: 78.1%
viability, T/C [30]: 77.1%
viability, T/C [31]: 94.8%
viability, T/C [32]: 94.7%
viability, T/C [33]: 93%
viability, T/C [34]: 83.5%
viability, T/C [35]: 83.6%
viability, T/C [36]: 78.3%
